# System: MV-4-11 cells
# Assay: Gene expression microarray analysis (Affymetrix PrimeView) and GSEA
# Type: cell-based, human
# Design: RFU PODN (11730768_x_at) / Fold change /veh PODN (11730768_x_at) / RFU LINC00158 (11744669_a_at) / Fold change /veh LINC00158 (11744669_a_at) / RFU DUSP10 (11751237_a_at) / Fold change /veh DUSP10 (11751237_a_at) / RFU ID3 (11757404_x_at) / Fold change /veh ID3 (11757404_x_at) / RFU PLEKHG5 (11737974_s_at) / Fold change /veh PLEKHG5 (11737974_s_at) / RFU LRRC4B (11730491_at) / Fold change /veh LRRC4B (11730491_at) / RFU GIMAP4 (11747438_a_at) / Fold change /veh GIMAP4 (11747438_a_at) / RFU KRT8 (11758183_x_at) / Fold change /veh KRT8 (11758183_x_at) / RFU CNN1 (11734310_a_at) / Fold change /veh CNN1 (11734310_a_at) / RFU VPS37D (11726825_at) / Fold change /veh VPS37D (11726825_at) / RFU C10orf10 (11716522_x_at) / Fold change /veh C10orf10 (11716522_x_at) / RFU KIR2DL2 /// KIR2DL4 /// KIR2DL5A /// KIR2DL5B /// KIR2DS1 /// KIR2DS2 /// KIR2DS3 /// KIR2DS4 /// KIR3DL3 /// KIR3DL3 /// KIR3DS1 (11738374_at) / Fold change /veh KIR2DL2 /// KIR2DL4 /// KIR2DL5A /// KIR2DL5B /// KIR2DS1 /// KIR2DS2 /// KIR2DS3 /// KIR2DS4 /// KIR3DL3 /// KIR3DL3 /// KIR3DS1 (11738374_at) / RFU C1QL1 (11718748_at) / Fold change /veh C1QL1 (11718748_at) / RFU TMPRSS4 (11747572_a_at) / Fold change /veh TMPRSS4 (11747572_a_at) / RFU HAMP (11756126_x_at) / Fold change /veh HAMP (11756126_x_at) / RFU RNFT2 (11725882_a_at) / Fold change /veh RNFT2 (11725882_a_at) / RFU NR4A2 (11747474_a_at) / Fold change /veh NR4A2 (11747474_a_at) / RFU ABCC12 (11746883_a_at) / Fold change /veh ABCC12 (11746883_a_at) / RFU TMEM136 (11760407_x_at) / Fold change /veh TMEM136 (11760407_x_at) / RFU CLDN22 /// WWC2 (11732394_at) / Fold change /veh CLDN22 /// WWC2 (11732394_at) / RFU HLA-DPB1 (11760878_x_at) / Fold change /veh HLA-DPB1 (11760878_x_at) / RFU SPINT1 (11716480_a_at) / Fold change /veh SPINT1 (11716480_a_at) / RFU GAP43 (11754022_s_at) / Fold change /veh GAP43 (11754022_s_at) / RFU A4GNT (11735810_at) / Fold change /veh A4GNT (11735810_at) / RFU PRB3 (11715151_x_at) / Fold change /veh PRB3 (11715151_x_at) / RFU TUBB4B (11761932_at) / Fold change /veh TUBB4B (11761932_at) / RFU CAPN14 (11732068_a_at) / Fold change /veh CAPN14 (11732068_a_at) / RFU TMCC2 (11721928_a_at) / Fold change /veh TMCC2 (11721928_a_at) / RFU IRGQ (11745062_a_at) / Fold change /veh IRGQ (11745062_a_at) / RFU FAM174B (11720279_a_at) / Fold change /veh FAM174B (11720279_a_at) / RFU TMPRSS4 (11748680_a_at) / Fold change /veh TMPRSS4 (11748680_a_at) / RFU FAM212B (11763350_a_at) / Fold change /veh FAM212B (11763350_a_at) / RFU PLEKHG5 (11743358_a_at) / Fold change /veh PLEKHG5 (11743358_a_at) / RFU ZSCAN30 (11745921_a_at) / Fold change /veh ZSCAN30 (11745921_a_at) / RFU CMKLR1 (11741424_a_at) / Fold change /veh CMKLR1 (11741424_a_at) / RFU LOC101060620 /// MAPK8IP1 (11723275_at) / Fold change /veh LOC101060620 /// MAPK8IP1 (11723275_at) / RFU SPTSSB (11747773_x_at) / Fold change /veh SPTSSB (11747773_x_at) / RFU PRSS12 (11739890_at) / Fold change /veh PRSS12 (11739890_at) / RFU BIN1 (11741810_x_at) / Fold change /veh BIN1 (11741810_x_at) / RFU WNT11 (11732464_a_at) / Fold change /veh WNT11 (11732464_a_at) / RFU C10orf10 (11716521_a_at) / Fold change /veh C10orf10 (11716521_a_at) / RFU C5orf56 (11738089_at) / Fold change /veh C5orf56 (11738089_at) / RFU CYB561 (11721691_x_at) / Fold change /veh CYB561 (11721691_x_at) / RFU ANKRD19P (11752326_a_at) / Fold change /veh ANKRD19P (11752326_a_at) / RFU OR2T12 /// OR2T33 /// OR2T8 (11738714_s_at) / Fold change /veh OR2T12 /// OR2T33 /// OR2T8 (11738714_s_at) / RFU VCAN (11748164_a_at) / Fold change /veh VCAN (11748164_a_at) / RFU JSRP1 (11732532_at) / Fold change /veh JSRP1 (11732532_at) / RFU KRTAP10-11 (11738290_x_at) / Fold change /veh KRTAP10-11 (11738290_x_at) / RFU MYO3A (11730013_a_at) / Fold change /veh MYO3A (11730013_a_at) / RFU EBF3 (11725865_a_at) / Fold change /veh EBF3 (11725865_a_at) / RFU CAMK2N1 (11719241_x_at) / Fold change /veh CAMK2N1 (11719241_x_at) / RFU C5orf56 (11738088_a_at) / Fold change /veh C5orf56 (11738088_a_at) / RFU OLFML3 (11715873_a_at) / Fold change /veh OLFML3 (11715873_a_at) / RFU LOC100653217 /// NTM (11731650_a_at) / Fold change /veh LOC100653217 /// NTM (11731650_a_at) / RFU MAPK11 (11762145_a_at) / Fold change /veh MAPK11 (11762145_a_at) / RFU FIZ1 (11724087_x_at) / Fold change /veh FIZ1 (11724087_x_at) / RFU OASL (11726364_x_at) / Fold change /veh OASL (11726364_x_at) / RFU SOX15 (11748057_x_at) / Fold change /veh SOX15 (11748057_x_at) / RFU CD79A (11719716_a_at) / Fold change /veh CD79A (11719716_a_at) / RFU HIST1H1D (11736915_at) / Fold change /veh HIST1H1D (11736915_at) / RFU CASKIN2 (11723855_a_at) / Fold change /veh CASKIN2 (11723855_a_at) / RFU LOC730098 (11760151_x_at) / Fold change /veh LOC730098 (11760151_x_at) / RFU OR4N2 (11742367_at) / Fold change /veh OR4N2 (11742367_at) / RFU PRRT2 (11749266_a_at) / Fold change /veh PRRT2 (11749266_a_at) / RFU SNX32 (11753110_a_at) / Fold change /veh SNX32 (11753110_a_at) / RFU CDHR5 (11726645_a_at) / Fold change /veh CDHR5 (11726645_a_at) / RFU RCAN1 (11760418_a_at) / Fold change /veh RCAN1 (11760418_a_at) / RFU FAM167A (11723789_a_at) / Fold change /veh FAM167A (11723789_a_at) / RFU FAM26E (11764081_at) / Fold change /veh FAM26E (11764081_at) / RFU ISYNA1 (11749810_s_at) / Fold change /veh ISYNA1 (11749810_s_at) / RFU ACY1 (11761880_at) / Fold change /veh ACY1 (11761880_at) / RFU 11764098_at / Fold change /veh 11764098_at / RFU SAMD14 (11745864_x_at) / Fold change /veh SAMD14 (11745864_x_at) / RFU NPB (11741838_a_at) / Fold change /veh NPB (11741838_a_at) / RFU TMPRSS6 (11731388_a_at) / Fold change /veh TMPRSS6 (11731388_a_at) / RFU KRTAP10-2 (11738614_at) / Fold change /veh KRTAP10-2 (11738614_at) / RFU ARHGAP8 /// PRR5-ARHGAP8 (11727945_x_at) / Fold change /veh ARHGAP8 /// PRR5-ARHGAP8 (11727945_x_at) / RFU KRTAP5-7 /// NADSYN1 (11734609_at) / Fold change /veh KRTAP5-7 /// NADSYN1 (11734609_at) / RFU RASL12 (11751679_a_at) / Fold change /veh RASL12 (11751679_a_at) / RFU CDKN2B (11736163_a_at) / Fold change /veh CDKN2B (11736163_a_at) / RFU PRF1 (11729649_at) / Fold change /veh PRF1 (11729649_at) / RFU, ZNF638 /// ZNF638-IT1 / Fold change vs veh, ZNF638 /// ZNF638-IT1 / RFU, PANK3 / Fold change vs veh, PANK3 / RFU, SH3YL1 / Fold change vs veh, SH3YL1 / RFU, ZEB2 / Fold change vs veh, ZEB2 / RFU, NRIP1 / Fold change vs veh, NRIP1 / RFU, PTTG1IP / Fold change vs veh, PTTG1IP / RFU, CAPN2 / Fold change vs veh, CAPN2 / RFU, MED14 / Fold change vs veh, MED14 / RFU, SNORA58 / Fold change vs veh, SNORA58 / RFU, C1orf63 / Fold change vs veh, C1orf63 / RFU, LRRFIP1 / Fold change vs veh, LRRFIP1 / RFU, NDUFAF7 / Fold change vs veh, NDUFAF7 / RFU, SLC12A2 / Fold change vs veh, SLC12A2 / RFU, IBTK / Fold change vs veh, IBTK / RFU, ESF1 / Fold change vs veh, ESF1 / Fold change vs veh, TMEM50B / RFU, TAOK1 / Fold change vs veh, TAOK1 / RFU, ACBD3 / Fold change vs veh, ACBD3 / RFU, TMA16 / Fold change vs veh, TMA16 / RFU, RWDD3 / Fold change vs veh, RWDD3 / RFU, BCAT1 / Fold change vs veh, BCAT1 / RFU, EDEM3 / Fold change vs veh, EDEM3 / RFU, TMEM33 / Fold change vs veh, TMEM33 / RFU, WDR75 / Fold change vs veh, WDR75 / RFU, AHCTF1 / Fold change vs veh, AHCTF1 / RFU, TFRC / Fold change vs veh, TFRC / RFU, ZDHHC17 / Fold change vs veh, ZDHHC17 / RFU, NOM1 / Fold change vs veh, NOM1 / RFU, ARL8B / Fold change vs veh, ARL8B / RFU, ZBTB11 / Fold change vs veh, ZBTB11 / RFU, TAMM41 / Fold change vs veh, TAMM41 / RFU, KIAA1704 /// LOC100996395 / Fold change vs veh, KIAA1704 /// LOC100996395 / RFU, ING1 / Fold change vs veh, ING1 / RFU, TRMT61B / Fold change vs veh, TRMT61B / RFU, FUBP3 / Fold change vs veh, FUBP3 / RFU, TP53 / Fold change vs veh, TP53 / RFU, TNKS2 / Fold change vs veh, TNKS2 / RFU, ZFP14 / Fold change vs veh, ZFP14 / RFU, ACTR2 / Fold change vs veh, ACTR2 / RFU, PPP3R1 / Fold change vs veh, PPP3R1 / RFU, PIK3R1 / Fold change vs veh, PIK3R1 / RFU, HNRNPA1 / Fold change vs veh, HNRNPA1 / RFU, RNF170 / Fold change vs veh, RNF170 / RFU, ZNF28 / Fold change vs veh, ZNF28 / RFU, RNGTT / Fold change vs veh, RNGTT / RFU, OGT / Fold change vs veh, OGT / RFU, BRD1 / Fold change vs veh, BRD1 / RFU, MARS / Fold change vs veh, MARS / RFU, ZNF655 / Fold change vs veh, ZNF655 / RFU, FAHD1 / Fold change vs veh, FAHD1 / RFU, BDP1 / Fold change vs veh, BDP1 / RFU, LRRCC1 / Fold change vs veh, LRRCC1 / RFU, ARID1A / Fold change vs veh, ARID1A / RFU, ZNF146 / Fold change vs veh, ZNF146 / RFU, ZNF330 / Fold change vs veh, ZNF330 / RFU, GPN3 / Fold change vs veh, GPN3 / RFU, C9orf123 / Fold change vs veh, C9orf123 / RFU, N4BP2L2 / Fold change vs veh, N4BP2L2 / RFU, ARFIP1 / Fold change vs veh, ARFIP1 / RFU, FAM179B / Fold change vs veh, FAM179B / RFU, BCL10 / Fold change vs veh, BCL10 / RFU, UHRF1BP1L / Fold change vs veh, UHRF1BP1L / RFU, BET1 / Fold change vs veh, BET1 / RFU, CNOT2 / Fold change vs veh, CNOT2 / RFU, ZNF268 / Fold change vs veh, ZNF268 / Fold change vs veh, ZNF507 / RFU, DGCR2 / Fold change vs veh, DGCR2 / RFU, WDSUB1 / Fold change vs veh, WDSUB1 / Fold change vs veh, HSP90B1 /// MIR3652 / RFU, ADSS / Fold change vs veh, ADSS / RFU, GK / Fold change vs veh, GK / RFU, ZNF148 / Fold change vs veh, ZNF148 / RFU, TAF9 / Fold change vs veh, TAF9 / RFU, SLC1A5 / Fold change vs veh, SLC1A5 / RFU, SLMO2 / Fold change vs veh, SLMO2 / RFU, ABCC4 / Fold change vs veh, ABCC4 / RFU, LOC101060439 /// RAP1B / Fold change vs veh, LOC101060439 /// RAP1B / RFU, RFX7 / Fold change vs veh, RFX7 / RFU, GTPBP10 / Fold change vs veh, GTPBP10 / RFU, CNEP1R1 / Fold change vs veh, CNEP1R1 / RFU, BIVM-ERCC5 /// ERCC5 / Fold change vs veh, BIVM-ERCC5 /// ERCC5 / RFU, ILF3 / Fold change vs veh, ILF3 / RFU 11762660_at / Fold change /veh 11762660_at / RFU VCAN (11757783_s_at) / Fold change /veh VCAN (11757783_s_at) / RFU DDX43 (11728927_at) / Fold change /veh DDX43 (11728927_at) / RFU KRT8 (11758188_x_at) / Fold change /veh KRT8 (11758188_x_at) / RFU NKD1 (11759106_at) / Fold change /veh NKD1 (11759106_at) / RFU SRD5A1 (11742802_a_at) / Fold change /veh SRD5A1 (11742802_a_at) / RFU TPSAB1 /// TPSB2 (11721975_s_at) / Fold change /veh TPSAB1 /// TPSB2 (11721975_s_at) / RFU GSTM3 (11746129_a_at) / Fold change /veh GSTM3 (11746129_a_at) / RFU IL23R (11737362_x_at) / Fold change /veh IL23R (11737362_x_at) / RFU TMEM51 (11727254_a_at) / Fold change /veh TMEM51 (11727254_a_at) / RFU PIWIL2 (11732686_x_at) / Fold change /veh PIWIL2 (11732686_x_at) / RFU ORM1 (11744905_x_at) / Fold change /veh ORM1 (11744905_x_at) / RFU CCDC152 (11743942_at) / Fold change /veh CCDC152 (11743942_at) / RFU ECM1 (11717891_a_at) / Fold change /veh ECM1 (11717891_a_at) / RFU IL23R (11748794_a_at) / Fold change /veh IL23R (11748794_a_at) / RFU TNFAIP8L3 (11732012_x_at) / Fold change /veh TNFAIP8L3 (11732012_x_at) / RFU MBOAT4 (11741988_at) / Fold change /veh MBOAT4 (11741988_at) / RFU 11764193_at / Fold change /veh 11764193_at / RFU TMEM53 (11763286_at) / Fold change /veh TMEM53 (11763286_at) / RFU MAGEB2 (11727129_at) / Fold change /veh MAGEB2 (11727129_at) / RFU TMEM200A (11744735_a_at) / Fold change /veh TMEM200A (11744735_a_at) / RFU CCDC152 (11751479_a_at) / Fold change /veh CCDC152 (11751479_a_at) / RFU FAM211A (11726209_a_at) / Fold change /veh FAM211A (11726209_a_at) / RFU RGS16 (11746705_a_at) / Fold change /veh RGS16 (11746705_a_at) / RFU VCAN (11755009_s_at) / Fold change /veh VCAN (11755009_s_at) / RFU RHOB (11743442_s_at) / Fold change /veh RHOB (11743442_s_at) / RFU RGS16 (11720943_a_at) / Fold change /veh RGS16 (11720943_a_at) / RFU RGS16 (11720944_at) / Fold change /veh RGS16 (11720944_at) / RFU, VPS4B / Fold change vs veh, VPS4B / RFU, CREB1 / Fold change vs veh, CREB1 / RFU, DNAJC13 / Fold change vs veh, DNAJC13 / RFU, GNAQ / Fold change vs veh, GNAQ / RFU, CDK5R1 / Fold change vs veh, CDK5R1 / RFU, ZRANB3 / Fold change vs veh, ZRANB3 / RFU, CUL4A / Fold change vs veh, CUL4A / RFU, CCNY / Fold change vs veh, CCNY / RFU, UFL1 / Fold change vs veh, UFL1 / RFU, COG3 / Fold change vs veh, COG3 / RFU, DIAPH2 / Fold change vs veh, DIAPH2 / RFU, SKA2 / Fold change vs veh, SKA2 / RFU, AFF3 / Fold change vs veh, AFF3 / RFU, LMF1 / Fold change vs veh, LMF1 / RFU, IPO11 / Fold change vs veh, IPO11 / RFU, DFFB / Fold change vs veh, DFFB / RFU, FOXP1 / Fold change vs veh, FOXP1 / RFU, CARD8 / Fold change vs veh, CARD8 / RFU, STRN3 / Fold change vs veh, STRN3 / RFU, ADK / Fold change vs veh, ADK / RFU, RASSF2 / Fold change vs veh, RASSF2 / RFU, WIPF1 / Fold change vs veh, WIPF1 / RFU, LARP1B / Fold change vs veh, LARP1B / RFU, RASA1 / Fold change vs veh, RASA1 / RFU, RB1 / Fold change vs veh, RB1 / RFU, PPFIA1 / Fold change vs veh, PPFIA1 / RFU, MAT2A / Fold change vs veh, MAT2A / RFU, CCT5 / Fold change vs veh, CCT5 / RFU, WDR92 / Fold change vs veh, WDR92 / RFU, CUX1 / Fold change vs veh, CUX1 / RFU, TTC7A / Fold change vs veh, TTC7A / RFU, TMEM135 / Fold change vs veh, TMEM135 / RFU, DEPTOR / Fold change vs veh, DEPTOR / RFU, CPM / Fold change vs veh, CPM / RFU, DNAJB6 / Fold change vs veh, DNAJB6 / RFU, CACNA2D3 / Fold change vs veh, CACNA2D3 / RFU, DTX4 / Fold change vs veh, DTX4 / RFU, TFCP2 / Fold change vs veh, TFCP2 / RFU, GMCL1 /// GMCL1P1 / Fold change vs veh, GMCL1 /// GMCL1P1 / RFU, AEBP2 / Fold change vs veh, AEBP2 / RFU, SNHG1 /// SNORD22 /// SNORD25 /// SNORD26 /// SNORD27 /// SNORD28 /// SNORD29 /// SNORD31 / Fold change vs veh, SNHG1 /// SNORD22 /// SNORD25 /// SNORD26 /// SNORD27 /// SNORD28 /// SNORD29 /// SNORD31 / Fold change (Aza/veh), C12orf56 (ProbeSet 11735607_a_at) / Fold change (ACY-1035/veh), C12orf56 (ProbeSet 11735607_a_at) / Fold change (Aza/veh), FGFR1OP (ProbeSet 11751329_s_at) / Fold change (ACY-1035/veh), FGFR1OP (ProbeSet 11751329_s_at) / Fold change (Aza/veh), VPS36 (ProbeSet 11739960_a_at) / Fold change (ACY-1035/veh), VPS36 (ProbeSet 11739960_a_at) / RFU SYPL1 (11715823_x_at) / Fold change /veh SYPL1 (11715823_x_at) / RFU IGFBP7 (11715501_s_at) / Fold change /veh IGFBP7 (11715501_s_at) / RFU REEP3 (11722064_at) / Fold change /veh REEP3 (11722064_at) / RFU IGLL1 (11728026_x_at) / Fold change /veh IGLL1 (11728026_x_at): dose or concentration left out as unconfirmed
# Conditions: ProbeSet 11753623_s_at; LIST D
smiles,measurement,value
Nc1ncn([C@@H]2O[C@H](CO)[C@@H](O)[C@H]2O)c(=O)n1 [azacitidine],"RFU, LOC101060439 /// RAP1B",283.36 RFU

# — paper PMC5218480 (PLoS ONE, 2017)
